{"source": "patent US20170224756A1", "about": "“Antioxidants Against Oxidative Stress During a Stressor Event” (MERIAL INC., priority 2016, published 2017)", "origin": "cited, not measured here", "key": {"gastric lesions": {"system": "gastric lesions", "settings": "indomethacin in rats"}, "oxidative stress": {"system": "oxidative stress", "settings": "heat-stressed quail"}, "endothelial dysfunction": {"system": "endothelial dysfunction", "settings": "locally administered; human forearms after typhoid vaccination"}}}
{"compound": "[Se]", "note": "[Se/DMSO, selenium]", "values": [{"measurement": "enzymatic antioxidants superoxide dismutase, catalase and glutathione peroxidase", "setting": "gastric lesions", "result": "increased"}, {"measurement": "gastric lesions", "setting": "gastric lesions", "result": "significantly reduced"}]}
{"compound": "epigallocatechin-3-gallate [EGCG]", "values": [{"measurement": "heat stress induced oxidative stress", "setting": "oxidative stress", "result": "alleviates"}]}
{"compound": "O=C1O[C@H]([C@@H](O)CO)C(O)=C1O", "note": "[ascorbic acid]", "values": [{"measurement": "endothelial dysfunction, reduced vascular nitric oxide bioavailability and increased oxidative stress", "setting": "endothelial dysfunction", "result": "partially reversible"}]}
